The source of these data is paper PMC7593722, “UPLC-MS/MS Method for the Simultaneous Quantification of Eight Compounds in Rat Plasma and Its Application to a Pharmacokinetic Study after Oral Administration of Veratrum (Veratrum nigrum L.) Extract” (BioMed Research International, 2020).

The data set in a line: in vivo. The following applies: for Detection in rat plasma after dosing: no complete pharmacokinetic curve; for Tmax: T max. Here is the method:
0.1% formic acid in water (A) and acetonitrile (B) were used as mobile phases with the following gradient elution method: 0-2 min, 15%-25% B; 2-4 min, 25%-50% B; 4-6 min, 50%-90% B; and 6-7 min, 90%-95% B. The separation was performed on a Waters ACQUITY UPLC® CSHTM Phenyl-Hexyl (2.1 × 100 mm, 1.7 μm) column, and the temperature was maintained at 20°C. The flow rate and injection volume were 0.3 mL/min and 5 μL, respectively.
100 μL plasma sample was incorporated with 20 μL methanol and 20 μL of IS (20 ng/mL), and vortexed for 30 seconds. 1 mL ethyl acetate was then added to the sample and vortex-mixed for 3 min. […] The obtained residue was reconstituted in 100 μL methanol and centrifugation at 12000 × g for 10 min. 5 μL of the supernatant was injected for UPLC-MS/MS measurement.
Six male Sprague-Dawley rats (body weight, 220 ± 10 g) were used for this experiment. […] 0.5% CMC-Na aqueous solution was used to dissolve the Veratrum nigrum L. extract to a concentration of 0.2 g/mL suspension. […] After centrifugation at 4000 × g for 10 min at 4°C, the collected plasma was transferred into clean tubes and frozen at -80°C until next analysis. Pharmacokinetic parameters were calculated using “Drug and Statistics 3.0” (DAS 3.0) (Medical College of Wannan, China). The animal protocol was approved by the Animal Ethics Committee of Tianjin University of Traditional Chinese Medicine (TCM-LAEC20190060).
Some important pharmacokinetic parameters were calculated in this study including Cmax, the maximum plasma concentration and time to reach Cmax of each compound (Tmax). The T1/2 was the elimination half-life and it reflects the elimination rate of the drug in the body. The area under the plasma concentration-time curve AUC(0 − t) was calculated using the trapezoidal rule and extrapolated to infinity for AUC(0 − ∞). The mean residence time (MRT) of these ingredients was also investigated.

The mark [1] stands for this setting: oral Veratrum nigrum L. extract 2 g/kg.
Setting [2] is: male, Sprague-Dawley, rat, in vivo, po, 2 g/kg.
The mark [3] stands for this setting: male, Sprague-Dawley, rat, in vivo, po, 2 g/kg, male Sprague-Dawley rats, oral Veratrum nigrum L. extract 2 g/kg, plasma, n = 6, mean ± SD.

As a reminder, the AUC(0-inf) is total exposure, with the tail of the curve extrapolated. Low readings indicate less exposure, high ones more exposure. What is called AUC(0-t) is exposure summed from dosing to a finite time, without extrapolation to infinity. Usually Cmax stands for the maximum level reached in the sampled fluid or tissue. A word on the MRT: it is the average time that molecules of a dose stay in the body. Broadly, the MRT inf is a mean duration of stay, worked out from the concentration-time curve. The half-life is the time in which the quantity being followed falls by half. A low value points to rapid decline. Broadly, the Tmax is the time from dosing to the highest level.

SMILES strings stand for the structures.

As to `O=c1c(O)c(-c2ccc(O)c(O)c2)oc2cc(O)cc(O)c12` [Quercetin, quercetin], the “Detection in rat plasma after dosing” value under setting [1] is “only detected at the first few plasma sampling points”.
The same measure, in the same setting: the result for `CC1=C2C[C@H]3[C@@H](CC=C4C[C@@H](O)CC[C@@]43C)[C@@H]2CC[C@]12O[C@@H]1C[C@H](C)CN[C@H]1[C@H]2C` [Cyclopamine, cyclopamine] reads “only detected at the first few plasma sampling points”.
In the case of `OC[C@H]1O[C@@H](Oc2cc(O)cc(/C=C/c3ccc(O)cc3)c2)[C@H](O)[C@@H](O)[C@@H]1O` [Polydatin, polydatin], under setting [2], the AUC(0-inf) is 71.2 ± 13.9 ng·h/mL, the AUC(0-t) was found to be 60.4 ± 18.1 ng·h/mL, the maximum concentration (Cmax) was found to be 27.1 ± 24 ng/mL and the MRT was found to be 13.2 ± 2.98 h. In addition, under setting [2], the MRT inf worked out at 16.5 ± 13.7 h and the half-life was 14.4 ± 10.6 h. Moreover, the Tmax under setting [3] was found to be 0.26 ± 0.29 h.
`O=c1cc(-c2ccc(O)cc2)oc2cc(O)cc(O)c12` [Apigenin, apigenin]: under setting [1], the “Detection in rat plasma after dosing” value was “only detected at the first few plasma sampling points”.
Regarding `Oc1ccc(/C=C/c2cc(O)cc(O)c2)cc1` [Resveratrol, resveratrol], under setting [2], the AUC(0-inf) is 101 ± 51.5 ng·h/mL, the AUC(0-t) was 89.7 ± 49.3 ng·h/mL, the concentration peaked (Cmax) at 45 ± 39.5 ng/mL and the MRT is 13.2 ± 7.77 h. In addition, under setting [2], the mean residence time MRT inf amounted to 19 ± 15.5 h and the half-life was 2.24 ± 1.11 h. In addition, the Tmax under setting [3] stood at 0.18 ± 0.17 h.
Compound `CC1=C2C(=O)[C@H]3[C@@H](CC=C4C[C@@H](O)CC[C@@]43C)[C@@H]2CC[C@]12O[C@@H]1C[C@H](C)CN[C@H]1[C@H]2C` [Jervine, jervine] returned a T max (male Sprague-Dawley rats, oral Veratrum nigrum L. extract 2 g/kg, plasma, n = 6, mean ± SD) of 32.00 ± 6.20 h. Under setting [2], this compound registered an AUC(0-inf) of 22700 ± 9430 ng·h/mL, an AUC(0-t) of 22600 ± 9390 ng·h/mL, a Cmax of 515 ± 242 ng/mL and a mean residence time (MRT) of 38.8 ± 5.58 h. Also, under setting [2], the MRT inf is 39.1 ± 5.53 h and the half-life is 13.6 ± 1.36 h. In addition, the Tmax under setting [3] is more than 32 h.
Under setting [2], `Cc1c([C@H](C)[C@@H]2NC[C@@H](C)C[C@H]2O)ccc2c1C[C@H]1[C@H]2CC=C2C[C@@H](O)CC[C@@]21C` [Veratramine, veratramine] yielded an AUC(0-inf) of 8000 ± 2330 ng·h/mL, an AUC(0-t) of 7980 ± 2330 ng·h/mL, a Cmax of 193 ± 76.5 ng/mL and an MRT of 38.8 ± 5.83 h. Also, under setting [2], the MRT inf stood at 39 ± 5.91 h, the T max turned out to be 34.08 ± 23.14 h, the half-life was 14.2 ± 6.51 h and the time of peak concentration (Tmax) is more than 32 h.
Under setting [2], `Cc1c([C@H](C)[C@@H]2NC[C@@H](C)C[C@H]2O)ccc2c1C[C@H]1[C@H]2CC=C2C[C@@H](O[C@@H]3O[C@H](CO)[C@@H](O)[C@H](O)[C@H]3O)CC[C@@]21C` [Veratrosine, veratrosine] displayed an AUC(0-inf) of 421 ± 199 ng·h/mL, an AUC(0-t) of 410 ± 183 ng·h/mL, a peak concentration (Cmax) of 237 ± 155 ng/mL and an MRT of 10.5 ± 6.9 h. Under setting [2], the MRT inf worked out at 11.3 ± 7.68 h and the half-life is 11.5 ± 7.04 h. Further, the Tmax under setting [3] is 0.08 h.
